Experimental data taken from patent US20250215029A1 (Recludix Pharma, Inc., priority 2022, published 2025).

Molecular target: T1, pY641-STAT6 in PBMC (Homo sapiens, UniProt P42226)
T1 construct: Cryopreserved Peripheral Blood Mononuclear Cells (PBMC) are from AllCells; host or cells: cryopreserved PBMC
T1 sequence (P42226 1-847): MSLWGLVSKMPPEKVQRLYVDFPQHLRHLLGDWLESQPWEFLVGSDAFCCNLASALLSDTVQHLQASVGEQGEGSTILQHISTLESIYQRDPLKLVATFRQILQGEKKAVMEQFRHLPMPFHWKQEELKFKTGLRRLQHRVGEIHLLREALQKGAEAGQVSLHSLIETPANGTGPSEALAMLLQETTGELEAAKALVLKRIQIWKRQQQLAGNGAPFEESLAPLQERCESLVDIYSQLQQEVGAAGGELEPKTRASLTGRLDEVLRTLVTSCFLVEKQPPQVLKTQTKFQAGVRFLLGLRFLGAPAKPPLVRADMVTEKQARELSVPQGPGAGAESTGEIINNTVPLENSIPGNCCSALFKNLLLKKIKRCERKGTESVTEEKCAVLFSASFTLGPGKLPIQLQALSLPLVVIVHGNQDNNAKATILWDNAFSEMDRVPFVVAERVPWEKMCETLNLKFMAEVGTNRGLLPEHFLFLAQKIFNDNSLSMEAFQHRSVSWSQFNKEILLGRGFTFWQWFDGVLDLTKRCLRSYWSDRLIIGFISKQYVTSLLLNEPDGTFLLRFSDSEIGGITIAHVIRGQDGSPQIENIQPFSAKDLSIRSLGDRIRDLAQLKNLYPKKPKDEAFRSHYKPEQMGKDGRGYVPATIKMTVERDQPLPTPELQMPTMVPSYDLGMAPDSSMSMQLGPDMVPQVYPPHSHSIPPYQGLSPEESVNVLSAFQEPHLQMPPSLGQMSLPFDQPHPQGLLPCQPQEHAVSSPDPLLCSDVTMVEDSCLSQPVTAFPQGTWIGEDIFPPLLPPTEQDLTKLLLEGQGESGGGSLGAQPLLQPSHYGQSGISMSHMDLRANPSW
Assay: MSD-pSTAT-PBMC Assay (pSTAT6, IL-4 stimulated)
Type: cell-based
Conditions: PBMC, compound 3 hrs, then 1 ng/mL IL-4 for 10 min; Table 115; read-out: STAT6
Excerpt: Cryopreserved Peripheral Blood Mononuclear Cells (PBMC) are from AllCells. Recombinant Human IL-4 and IL-6 are from Peprotech. Mouse monoclonal anti-STAT3 antibody, rabbit monoclonal anti-pY705-STAT3 antibody, rabbit monoclonal Anti-pY641-STAT6 antibody, and lysis buffer are from Cell Signaling Technology (CST). Mouse monoclonal anti-STAT6 antibody is from BioLegend. Assay plates, blocker, and anti-rabbit secondary antibody are from Meso Scale Discovery (MSD).
Cyropreserved PBMCs were thawed out and allowed to recover overnight in IMDM+10% heat-inactivated FBS prior to plating 50,000 (STAT3) or 25,000 (STAT6) cells per well in 96-well U-bottom tissue culture plates. Cells were treated with compound for 3 hrs, then stimulated with 10 ng/mL IL-6 (STAT3) or 1 ng/mL IL-4 (STAT6) for 10 min. Cells were then spun down and washed with ice-cold PBS prior to lysing the cell pellet with 1× lysis buffer (CST) with 1× HALT protease and phosphatase inhibitor cocktail (Thermo). Lysates were transferred to and incubated overnight at 4° C. with shaking in QuickPlex 96-well high bind assay plates (MSD) pre-coated overnight with 30 μL per well of 0.6 μg/mL mouse monoclonal anti-STAT3 antibody (STAT3) or 2 μg/mL mouse monoclonal anti-STAT6 antibody (STAT6) in 1× PBS, and pre-blocked for 1 hour with 3% Blocker-A (MSD). Captured protein in the assay plates were then washed and probed with 25 μL per well of […] rabbit monoclonal anti-pY705-STAT3 antibody (STAT3) or 0.18 μg/ml rabbit monoclonal Anti-pY641-STAT6 antibody (STAT6) in 1% Blocker-A for 1 hour at room temperature with shaking, then washed and probed with 25 ul per well of 1 ug/ml Sulfo-TAG Labeled Goat Anti-Rabbit Antibody (MSD) in 1% Blocker-A for 1 hour at room temperature with shaking. Assay plates were then washed and 150 μL of 1× Read Buffer-T (MSD) was added to each well prior to reading on an SQ120 MSD Plate Reader. Assay signal from each sample was subtracted by the signal from unstimulated control wells and normalized to DMSO control wells. IC50 values were calculated using Graph Pad Prism Dose-Response Nonlinear Regression with variable slope. For both pSTAT3 and pSTAT6 A=≤100 nM; B 100-1000 nM; C=>1000-3000 nM; D=>3 μM; and NT=Not Tested.

Compound	IC50 [nM]
CCCOC(=O)[C@H](C)NP(=O)(Oc1ccccc1)[C@@H](F)c1ccc2sc(C(=O)N[C@H]3CCCC[C@H]4CC[C@@H](C(=O)N5C[C@H](c6cccnc6)[C@@H](C#N)C56CC6)N4C3=O)cc2c1 (stereo partly shown) [Compound 365]	< 100

Same assay, conditions: STAT6, PBMC, compound 3 hrs, then 1 ng/mL IL-4 for 10 min; Table 115

Compound	IC50 [nM]
C[C@H](NP(=O)(Oc1ccccc1)[C@@H](F)c1ccc2sc(C(=O)N[C@H]3CCCC[C@H]4CC[C@@H](C(=O)N5C[C@@H](c6cccnc6)CC56CC6)N4C3=O)cc2c1)C(=O)OCC1COC1 (stereo partly drawn) [Compound 374, oxetan-3-ylmethyl (((R)-fluoro(2-(((3S,6S,10aS)-5-oxo-3-((R)-6-(pyridin-3-yl)-4-azaspiro[2.4]heptane-4-carbonyl)decahydropyrrolo[1,2-a]azocin-6-yl)carbamoyl)benzo [b]thiophen-5-yl)methyl)(phenoxy)phosphoryl)-L-alaninate]	< 100
CCCOC(=O)[C@H](C)NP(=O)(Oc1ccccc1)[C@@H](F)c1ccc2sc(C(=O)N[C@H]3CCCC[C@H]4CC[C@@H](C(=O)N5C[C@H](c6cncc(Cl)c6)[C@@H](C#N)C56CC6)N4C3=O)cc2c1 (single isomer, unassigned) [Compound 370]	< 100
CCCOC(=O)[C@H](C)NP(=O)(Oc1ccccc1)[C@@H](F)c1ccc2sc(C(=O)N[C@H]3CCC[C@H]4CC[C@@H](C(=O)N5C[C@@H](c6cccc(C)c6)[C@H](C#N)C56CC6)N4C3=O)cc2c1 (single isomer, unassigned) [Compound 341]	< 100
CCCOC(=O)[C@H](C)NP(=O)(Oc1ccccc1)C(F)c1ccc2sc(C(=O)N[C@H]3CCCC[C@H]4CC[C@@H](C(=O)N5C(=O)N(c6cccc7c6OC(F)(F)O7)C(=O)C56CC6)N4C3=O)cc2c1 (stereo partly drawn) [Compound 982, propyl (((2-(((3S,6S,10aS)-3-(6-(2,2-difluorobenzo[d][1, 3]dioxol-4-yl)-5,7-dioxo-4,6-diazaspiro [2.4]heptane-4-carbonyl)-5-oxodecahydropyrrolo [1,2-a]azocin-6-yl)carbamoyl)benzo [b]thiophen-5-yl)fluoromethyl) (phenoxy)phosphoryl)-L-alaninate]	> 3000
CCCOC(=O)[C@H](C)NP(=O)(Oc1ccccc1)C(F)c1ccc2sc(C(=O)N[C@H]3CCCC[C@H]4CC[C@@H](C(=O)N5C(=O)N(c6cccnc6)C(=O)C56CC6)N4C3=O)cc2c1 (stereo partly drawn) [Compound 452, propyl (((2-(((3S,6S,10aS)-3-(5,7-dioxo-6-(pyridin-3-yl)-4,6-diazaspiro[2.4]heptane-4-carbonyl)-5-oxodecahydropyrrolo [1,2-a]azocin-6-yl)carbamoyl)benzo [b]thiophen-5-yl)fluoromethyl) (phenoxy)phosphoryl)-L-alaninate]	< 100
CCCOC(=O)[C@H](C)NP(=O)(Oc1ccccc1)[C@H](F)c1ccc2sc(C(=O)N[C@H]3CCCC[C@H]4CC[C@@H](C(=O)N5C[C@@H](C#N)[C@H](c6ccccc6)C5)N4C3=O)cc2c1 (single isomer, unassigned) [Compound 321]	< 100
CCCOC(=O)[C@H](C)NP(=O)(Oc1ccccc1)[C@@H](F)c1ccc2sc(C(=O)N[C@H]3CCC[C@H]4CC[C@@H](C(=O)N5C[C@H](c6cncc(Cl)c6)[C@@H](C#N)C56CC6)N4C3=O)cc2c1 (single isomer, unassigned) [Compound 367]	100 to 1000
CCCOC(=O)[C@H](C)NP(=O)(Oc1ccccc1)C(F)c1ccc2sc(C(=O)N[C@H]3CCCC[C@H]4CC[C@@H](C(=O)N5C[C@H](c6cccnc6OC)[C@@H](C#N)C5)N4C3=O)cc2c1 (relative stereo) [Compound 322, propyl (((2-(((3S,6S,10aS)-3-((rel-trans)-3-cyano-4-(2-methoxypyridin-3-yl)pyrrolidine-1-carbonyl)-5-oxodecahydropyrrolo [1,2-a]azocin-6-yl)carbamoyl)benzo [b]thiophen-5-yl)fluoromethyl) (phenoxy)phosphoryl)-L-alaninate]	< 100
CCCOC(=O)[C@H](C)NP(=O)(Oc1ccccc1)[C@@H](F)c1ccc2sc(C(=O)N[C@H]3CCCC[C@H]4CC[C@@H](C(=O)N5C(=O)N(c6cccnc6)C(=O)C56CC6)N4C3=O)cc2c1 (stereo partly drawn) [Compound 468, propyl (((R)-(2-(((3S,6S,10aS)-3-(5,7-dioxo-6-(pyridin-3-yl)-4,6-diazaspiro[2.4]heptane-4-carbonyl)-5-oxodecahydropyrrolo [1,2-a]azocin-6-yl)carbamoyl)benzo [b]thiophen-5-yl)fluoromethyl) (phenoxy)phosphoryl)-L-alaninate]	< 100
CCCOC(=O)[C@H](C)NP(=O)(Oc1ccccc1)C(F)c1ccc2sc(C(=O)N[C@H]3CCCC[C@H]4CC[C@@H](C(=O)N5C(=O)N(c6cccnc6)C(=O)C5(C)C)N4C3=O)cc2c1 (stereo partly drawn) [Compound 989, propyl (((2-(((3S,6S,10aS)-3-(5,5-dimethyl-2,4-dioxo-3-(pyridin-3-yl)imidazolidine-1-carbonyl)-5-oxodecahydropyrrolo [1,2-a]azocin-6-yl)carbamoyl)benzo [b]thiophen-5-yl)fluoromethyl) (phenoxy)phosphoryl)-L-alaninate]	> 3000
COCCOC(=O)[C@H](C)NP(=O)(Oc1ccccc1)[C@H](F)c1ccc2sc(C(=O)N[C@H]3CCC[C@H]4CC[C@@H](C(=O)N5C[C@H](c6ccccc6)[C@@H](C#N)C56CC6)N4C3=O)cc2c1 (stereo partly drawn) [Compound 351, 2-methoxyethyl (((S)-(2-(((3S,6S,9aS)-3-((6S,7R)-7-cyano-6-phenyl-4-azaspiro[2.4]heptane-4-carbonyl)-5-oxooctahydro-1H-pyrrolo[1,2-a]azepin-6-yl)carbamoyl)benzo [b]thiophen-5-yl)fluoromethyl) (phenoxy)phosphoryl)-L-alaninate]	< 100
CCCOC(=O)[C@H](C)NP(=O)(Oc1ccccc1)C(F)c1ccc2sc(C(=O)N[C@H]3CCCC[C@H]4CC[C@@H](C(=O)N5C[C@@H](C#N)[C@H](c6ccn(C)c(=O)c6)C5)N4C3=O)cc2c1 (single isomer, unassigned) [Compound 318]	> 3000
CCCOC(=O)[C@H](C)NP(=O)(Oc1ccccc1)[C@@H](F)c1ccc2sc(C(=O)N[C@H]3CCC[C@H]4CC[C@@H](C(=O)N5C[C@H](c6cccnc6)[C@@H](C#N)C56CC6)N4C3=O)cc2c1 (single isomer, unassigned) [Compound 362]	< 100
CCCOC(=O)[C@H](C)NP(=O)(Oc1ccccc1)[C@@H](F)c1ccc2sc(C(=O)N[C@H]3CC[C@H](N4CCC4)C[C@H]4CC[C@@H](C(=O)N5C[C@@H](c6ccccc6)[C@H](C#N)C56CC6)N4C3=O)cc2c1 (stereo partly drawn) [Compound 489, propyl (((R)-(2-(((3S,6S,9S,10aR)-9-(azetidin-1-yl)-3-((6R,7S)-7-cyano-6-phenyl-4-azaspiro[2.4]heptane-4-carbonyl)-5-oxodecahydropyrrolo [1,2-a]azocin-6-yl)carbamoyl)benzo [b]thiophen-5-yl)fluoromethyl) (phenoxy)phosphoryl)-L-alaninate]	100 to 1000
CCCOC(=O)[C@H](C)NP(=O)(Oc1ccccc1)C(C)c1ccc2ccc(C(=O)N[C@H]3CCCC[C@H]4CC[C@@H](C(=O)N5C[C@@H](c6ccccc6)CC56CC6)N4C3=O)cc2c1 (single isomer, unassigned) [Compound 425]	> 3000
